Laboratory results as given in patent publication US20050240034A1, “Artemisinin-based peroxide compounds as broad spectrum anti-infective agents” (priority 2002, published 2005).
≈ marks a conversion by molar mass, not a printed value.

Tested on: P. falciparum Sierra Leone D6 clone
Experiment: WHO/TDR in vitro antimalarial screen (uptake of radiolabeled nucleic acid precursor), D6 clone
Format: cell-based, Plasmodium falciparum
Conditions: Plasmodium falciparum, mefloquine-resistant, chloroquine-sensitive, second value in brackets not explained
Description: (§1) All test compounds are solubilized in DMSO and diluted 400 fold (to rule out a DMSO effect) in culture medium with plasma for a starting concentration of at least 12,500 ng/mL. Drugs are subsequently diluted five fold using the Cetus Pro/Pette system utilizing a range of concentrations from 0.8 ng/mL to 12,500 ng/mL. Fifty percent inhibitory concentrations are reported in ng/mL.
(§2) The D6 African P. falciparum clone is sensitive to chloroquine, pyrimethamine and sulfadoxine but resistant to mefloquine. The W2 Indochina P. falciparum clone is resistant to chloroquine, pyrimethamine and sulfadoxine but sensitive to mefloquine. The K1 P. falciparum is a resistant strain, where NF54 P. falciparum is a sensitive strain.

Compound | IC50 [µg/mL]
OC(c1cc(C(F)(F)F)nc2c(C(F)(F)F)cccc12)C1CCCCN1 (stereo not drawn) [Mefloquine, mefloquine, reference compound] | 0.0456 (≈ 0.12 µM)

Same assay, conditions: mefloquine-resistant, chloroquine-sensitive, second value in brackets not explained

Compound | P. falciparum (IC50) D6
CCN(CC)CCCC(C)Nc1ccnc2cc(Cl)ccc12 (stereo not drawn) [Chloroquine, chloroquine, reference compound] | 7.58 ng/mL
(+)-Octahydro-3,6α-dimethyl-3,12-epoxy-9β-(3′-(m-trifluoromethylphenyl)propyl)-12H-pyrano[4,3j]-1,2-benzodioxepin [Compound 38] | 8.48 ng/mL
CC1CCC2C(CCCc3ccc(Cl)cc3)COC3OC4(C)CCC1C32OO4 (stereo not drawn) [Compound 11] | 1.9 (1.9) ng/mL

Tested on: P. falciparum Indochina W2 clone
Experiment: WHO/TDR in vitro antimalarial screen, W2 clone
Format: cell-based, Plasmodium falciparum
Conditions: Plasmodium falciparum, chloroquine-resistant, mefloquine-sensitive, second value in brackets not explained
Description: as §1, §2

Compound | IC50 [µg/mL]
OC(c1cc(C(F)(F)F)nc2c(C(F)(F)F)cccc12)C1CCCCN1 (stereo not drawn) [Mefloquine, mefloquine, reference compound] | 0.0341 (≈ 0.09 µM)

Same assay, conditions: chloroquine-resistant, mefloquine-sensitive, second value in brackets not explained

Compound | P. falciparum (IC50) W2
CCN(CC)CCCC(C)Nc1ccnc2cc(Cl)ccc12 (stereo not drawn) [Chloroquine, chloroquine, reference compound] | 118.04 ng/mL
(+)-Octahydro-3,6α-dimethyl-3,12-epoxy-9β-(3′-(m-trifluoromethylphenyl)propyl)-12H-pyrano[4,3j]-1,2-benzodioxepin [Compound 38] | 30.32 ng/mL
CC1CCC2C(CCCc3ccc(Cl)cc3)COC3OC4(C)CCC1C32OO4 (stereo not drawn) [Compound 11] | 3.0 (2.2) ng/mL

Tested on: P. falciparum K1
Experiment: WHO/TDR in vitro antimalarial screen, K1
Format: cell-based, Plasmodium falciparum
Conditions: K1, chloroquine-resistant
Description: as §1, with “[…]. All” for “All”
as §2

Compound | P. falciparum (IC50) K1 [µg/mL]
CCN(CC)CCCC(C)Nc1ccnc2cc(Cl)ccc12 (stereo not drawn) [Chloroquine, chloroquine, reference compound] | 0.07901
(+)-Octahydro-3,6α-dimethyl-3,12-epoxy-9β-(3′-(m-trifluoromethylphenyl)propyl)-12H-pyrano[4,3j]-1,2-benzodioxepin [Compound 38] | 0.012

Same assay, conditions: Plasmodium falciparum; K1, chloroquine-resistant

Compound | IC50 [µg/mL]
OC(c1cc(C(F)(F)F)nc2c(C(F)(F)F)cccc12)C1CCCCN1 (stereo not drawn) [Mefloquine, mefloquine, reference compound] | 0.0203 (≈ 0.0538 µM)

Tested on: P. falciparum NF54
Experiment: WHO/TDR in vitro antimalarial screen, NF54
Format: cell-based, Plasmodium falciparum
Conditions: NF54, chloroquine-sensitive; second value in brackets not explained
Description: as §1, with “[…]. All” for “All”
as §2

Compound | P. falciparum (IC50) NF54
CCN(CC)CCCC(C)Nc1ccnc2cc(Cl)ccc12 (stereo not drawn) [Chloroquine, chloroquine, reference compound] | 7.36 ng/mL
(+)-Octahydro-3,6α-dimethyl-3,12-epoxy-9β-(3′-(m-trifluoromethylphenyl)propyl)-12H-pyrano[4,3j]-1,2-benzodioxepin [Compound 38] | 35.60 (30.76) ng/mL

Same assay, conditions: Plasmodium falciparum; NF54, chloroquine-sensitive; second value in brackets not explained

Compound | IC50 [µg/mL]
OC(c1cc(C(F)(F)F)nc2c(C(F)(F)F)cccc12)C1CCCCN1 (stereo not drawn) [Mefloquine, mefloquine, reference compound] | 0.0354 (≈ 0.0935 µM)

Tested on: P. berghei N
Experiment: in vivo Peter's 4-day antimalarial test in mice, P. berghei N
Design: P. berghei N P.O. ED50 / P. berghei N P.O. ED90: unit not given beside the values
Conditions: Plasmodium berghei, 96 h; mice, oral, 4-day test; unit inferred; read-out: P. berghei N P.O. ED50
Description: (§3) The parasitemia is determined on the day following the last treatment—day 4 to determine qualitatively the presence and degree of activity at the screening dose.

Compound | ED50 [mg/kg]
OC(c1cc(C(F)(F)F)nc2c(C(F)(F)F)cccc12)C1CCCCN1 (stereo not drawn) [Mefloquine, mefloquine, reference compound] | 1.1

Same assay, conditions: Plasmodium berghei, sc, 96 h; mice, subcutaneous, 4-day test; unit inferred; read-out: P. berghei N S.C. ED50

Compound | ED50 [mg/kg]
OC(c1cc(C(F)(F)F)nc2c(C(F)(F)F)cccc12)C1CCCCN1 (stereo not drawn) [Mefloquine, mefloquine, reference compound] | 1.5

Same assay, conditions: mice, oral, 4-day test; unit not given

Compound | P. berghei N P.O. ED50 | P. berghei N P.O. ED90
CCN(CC)CCCC(C)Nc1ccnc2cc(Cl)ccc12 (stereo not drawn) [Chloroquine, chloroquine, reference compound] | 1.7 | 3.1
(+)-Octahydro-3,6α-dimethyl-3,12-epoxy-9β-(3′-(m-trifluoromethylphenyl)propyl)-12H-pyrano[4,3j]-1,2-benzodioxepin [Compound 38] | 1.25 (0.5-2.3) | 4.4 (1.3-6.2)
OC(c1cc(C(F)(F)F)nc2c(C(F)(F)F)cccc12)C1CCCCN1 (stereo not drawn) [Mefloquine, mefloquine, reference compound] | – | 2.3
CC1CCC2C(CCCc3ccc(Cl)cc3)COC3OC4(C)CCC1C32OO4 (stereo not drawn) [Compound 11] | 1.0 | 2.1

Same assay, conditions: mice, subcutaneous, 4-day test; unit not given

Compound | P. berghei N S.C. ED50 | P. berghei N S.C. ED90
CCN(CC)CCCC(C)Nc1ccnc2cc(Cl)ccc12 (stereo not drawn) [Chloroquine, chloroquine, reference compound] | 1.5 | 3
(+)-Octahydro-3,6α-dimethyl-3,12-epoxy-9β-(3′-(m-trifluoromethylphenyl)propyl)-12H-pyrano[4,3j]-1,2-benzodioxepin [Compound 38] | 0.4 (0.2-1.2) | 0.75 (0.4-2.1)
OC(c1cc(C(F)(F)F)nc2c(C(F)(F)F)cccc12)C1CCCCN1 (stereo not drawn) [Mefloquine, mefloquine, reference compound] | – | 3.8
CC1CCC2C(CCCc3ccc(Cl)cc3)COC3OC4(C)CCC1C32OO4 (stereo not drawn) [Compound 11] | 0.7 | 1.2

Tested on: P. yoelli ssp. NS
Experiment: in vivo 4-day antimalarial test in mice, P. yoelli ssp. NS
Conditions: Plasmodium yoelii, sc; subcutaneous; unit inferred; read-out: P. yoelli ssp. NS (S.C.) ED50
Description: as §3

Compound | ED50 [mg/kg]
OC(c1cc(C(F)(F)F)nc2c(C(F)(F)F)cccc12)C1CCCCN1 (stereo not drawn) [Mefloquine, mefloquine, reference compound] | 2.3

Same assay, conditions: subcutaneous; unit inferred

Compound | P. yoelli ssp. NS (S.C.) ED50 [mg/kg] | P. yoelli ssp. NS (S.C.) ED90 [mg/kg]
CCN(CC)CCCC(C)Nc1ccnc2cc(Cl)ccc12 (stereo not drawn) [Chloroquine, chloroquine, reference compound] | 1.6 | 28
CC1CCC2C(CCCc3ccc(Cl)cc3)COC3OC4(C)CCC1C32OO4 (stereo not drawn) [Compound 11] | 0.6 | 1

Same assay, conditions: subcutaneous; unit not given

Compound | P. yoelli ssp. NS (S.C.) ED50 | P. yoelli ssp. NS (S.C.) ED90
(+)-Octahydro-3,6α-dimethyl-3,12-epoxy-9β-(3′-(m-trifluoromethylphenyl)propyl)-12H-pyrano[4,3j]-1,2-benzodioxepin [Compound 38] | 0.60 (0.3-0.9) | 1.00 (0.5-1.5)

Tested on: P. falciparum D6 (Sierra Leone)
Experiment: antimalarial parasite LDH (pLDH) assay, D6
Format: cell-based, Plasmodium falciparum
Conditions: LDH assay, Table 6
Description: (§4) The Thad Cochran National Center for Natural Products Research (University of Mississippi) in vitro antimalarial screen was conducted using an enzyme assay for detection of P. falciparum (see procedure below). This assay is based on the observation that lactate dehydrogenase (LDH) of P. falciparum is distinguishable from host LDH activity. P. falciparum LDH rapidly uses 3-acetyl pyridine nicotinamide adenine dinucleotide (APAD) as a coenzyme in the biotransformation of […].^38 The same process is carried out in human red blood cells at a very slow rate.
(§5) The “Antimalarial parasite LDH assay” is currently being conducted according the following procedure: prepare a suspension of RBC with a 2% parasitemia and 2% hematocrit in malaria complete medium. Dispense 200 μl aliquots of this suspension into each well of a 96 well microtiter plate. Add 10 μl volumes of the drugs to be tested in duplicate to the appropriate wells. Place the plates into humidified chamber and flush the cultures with a gas mixture consisting of 90% N2, 5% O2, and 5% CO2. Transfer the chamber containing the plates to an incubator, and incubate for 48 hours at 37° C. After 48 hours add 100 μl aliquots of the Malstat™ reagent to each well of a new 96-well microtiter plate Resuspend the cultures from the assay plate by mixing each well up and down several times. Remove 20 μl from each well of the resuspend culture and add to the plate containing the Malstat™ reagent. Incubate the plates at room temperature for 30 minutes. After 30 minutes, add to each well 20 μl of the 1:1 mixture of the NBT/PES solution (2 mg/ml and 0.1 mg/ml, respectively). Incubate the plates in the dark for 1 hour. Add 100 μl of 5% acetic acid solution to stop the reaction. The plate is then read at an endpoint of approximately 650 nm. The dose response curves are generated using Microsoft Excel.
(§6) Antimalarial activity of the analogues was determined in vitro on chloroquine sensitive (D)6, Sierra Leone) and resistant (W2, IndoChina) strains of Plasmodium falciparum. The 96 well microplate assay is based on evaluation of the effect of the compounds on the growth of asynchronous cultures of P. falciparum, determined by the assay of parasite lactate dehydrogenase (pLDH) activity.^28 The appropriate dilutions of the compounds were prepared in DMSO or RPMI-1640 medium and added to the cultures of P. falciparum (2% hematocrit, 2% parasitemia) set up in clear flat bottomed 96 well plates. The plates were placed into the humidified chamber and flushed with a gas mixture of 90% N2, 5% CO2 & 5% O2. The cultures were incubated at 37° C. for 48 hours. Growth of the parasite in each well was determined by pLDH assay using Malstat® reagent. The medium and RBC controls were also set-up in each plate. The standard antimalarial agents, chloroquine and artemisinin, were used as the positive controls while DMSO was tested as the negative control.

Compound | P. falciparum (IC50) D6 [µg/mL]
(+)-Octahydro-3,6α-dimethyl-3,12-epoxy-9β-(3′-(m-trifluoromethylphenyl)propyl)-12H-pyrano[4,3j]-1,2-benzodioxepin [Compound 38] | 0.0087

Same assay, conditions: Plasmodium falciparum, D6; pLDH assay, Table 5; read-out: P. falciparum (D6 Clone) IC50

Compound | IC50 [nM]
OC(c1cc(C(F)(F)F)nc2c(C(F)(F)F)cccc12)C1CCCCN1 (stereo not drawn) [Mefloquine, mefloquine, reference compound] | 170

Same assay, conditions: Selectivity Index = IC50 (Vero cells)/IC50 (P. falciparum), D6

Compound | S. I. (D6)
(+)-Octahydro-3,6α-dimethyl-3,12-epoxy-9β-(3′-(m-trifluoromethylphenyl)propyl)-12H-pyrano[4,3j]-1,2-benzodioxepin [Compound 38] | >55.0

Same assay, conditions: pLDH assay, Table 5; read-out: P. falciparum (D6 Clone) IC50

Compound | IC50 [nM]
CCN(CC)CCCC(C)Nc1ccnc2cc(Cl)ccc12 (stereo not drawn) [Chloroquine, chloroquine, reference compound] | 16.5
(+)-Octahydro-3,6α-dimethyl-3,12-epoxy-9β-(3′-(m-trifluoromethylphenyl)propyl)-12H-pyrano[4,3j]-1,2-benzodioxepin [Compound 38] | 27.8

Tested on: P. falciparum W2 (IndoChina)
Experiment: antimalarial parasite LDH (pLDH) assay, W2
Format: cell-based, Plasmodium falciparum
Conditions: LDH assay, Table 6
Description: as §4, §5
as §6, with “plate.” for “plate. The standard antimalarial agents, chloroquine and artemisinin, were used as the positive controls while DMSO was tested as the negative control.”

Compound | P. falciparum (IC50) W2 [µg/mL]
(+)-Octahydro-3,6α-dimethyl-3,12-epoxy-9β-(3′-(m-trifluoromethylphenyl)propyl)-12H-pyrano[4,3j]-1,2-benzodioxepin [Compound 38] | 0.011

Same assay, conditions: Plasmodium falciparum, W2; pLDH assay, Table 5; read-out: P. falciparum (W2 Clone) IC50

Compound | IC50 [nM]
OC(c1cc(C(F)(F)F)nc2c(C(F)(F)F)cccc12)C1CCCCN1 (stereo not drawn) [Mefloquine, mefloquine, reference compound] | 195

Same assay, conditions: Selectivity Index = IC50 (Vero cells)/IC50 (P. falciparum), W2

Compound | S. I. (W2)
(+)-Octahydro-3,6α-dimethyl-3,12-epoxy-9β-(3′-(m-trifluoromethylphenyl)propyl)-12H-pyrano[4,3j]-1,2-benzodioxepin [Compound 38] | >43

Same assay, conditions: pLDH assay, Table 5; read-out: P. falciparum (W2 Clone) IC50

Compound | IC50 [nM]
CCN(CC)CCCC(C)Nc1ccnc2cc(Cl)ccc12 (stereo not drawn) [Chloroquine, chloroquine, reference compound] | 233
(+)-Octahydro-3,6α-dimethyl-3,12-epoxy-9β-(3′-(m-trifluoromethylphenyl)propyl)-12H-pyrano[4,3j]-1,2-benzodioxepin [Compound 38] | 11.3

Tested on: Leishmania donovani promastigotes expressing firefly luciferase
Experiment: antileishmanial luciferase assay on transgenic promastigotes
Format: cell-based
Conditions: Table 1 (artemisinin analogues); NA = not active up to 125 μg/ml; read-out: Antileishmanial activity IC50
Description: Antileishmanial activity of the compounds was tested on a transgenic cell line of Leishmania donovani promastigotes expressing firefly luciferase.^29a In a 96 well microplate assay, compounds with appropriate dilution were added to the leishmania promastigotes culture (2×10^6 cell/mL). The plates were incubated at 26° C. for 72 hours and growth of leishmania promastigotes was determined by luciferase assay with Steady Glo® reagent (Promega, USA). Pentamidine and Amphotericin B were used as standard antileishmanial agents. The analogues were simultaneously tested for cytotoxicity on VERO cells (monkey kidney fibroblast) by Neutral Red assay.^29b IC50 values for the compounds were computed from the growth inhibition curve.

Compound | IC50 [nM]
(+)-Octahydro-3,6α-dimethyl-3,12-epoxy-9β-(3′-(m-trifluoromethylphenyl)propyl)-12H-pyrano[4,3j]-1,2-benzodioxepin [Compound 38] | 1900
